Measurements published in patent publication US6774143B1, “Method for treating cells resistant to antineoplastic agents” (Novartis AG, priority 2003, dated 2004).
In brackets after ≈: the same amount, converted by molar mass. Where two headings read alike, the source gives them in different places.

How the values were obtained:
[1] = test system: MCF-7/ADR cells (multidrug resistant); assay: Antiproliferative assay, methylene blue staining; format: cell-based, human
From the text: The following cell lines are obtained from the American Type Culture Collection (ATCC, Rockville, Md., USA): human colon carcinomas HCT-15 (CCL 225) and HCT-116 (CCL 247), human lung adenocarcinoma A549 (CCL 185), human large cell carcinoma NCI-H460 (HTB 177), estrogen-independent breast carcinoma MDA-MB-231 ([…]), prostate cancer cell line Du 145 (HTB 81). The human KB-31 (drug-sensitive) and KB-8511 (multidrug-resistant, Pgp170 overexpressing) epidermoid carcinoma cells are obtained from Dr. R. M. Baker, Roswell Park Memorial Institute (Buffalo, N.Y., USA) and have been previously described (Akiyam S, et al. Somatic Cell Molec Genetics 1985;11:117-126 and Fojo A, et al., Cancer Res. 1997;45:3002-3007). The human metastatic prostate carcinoma PC-3M is obtained from Dr. I. J. Fidler (MD Anderson Cancer Center, Houston, Tex., USA). […]
For the antiproliferative assays, cells are seeded at 1.5×10^3/well into 96-well microtiter plates and incubated overnight. […] After washing, the dye is eluted with 3% v/v HCl and the optical density measured at 665 nm with a SpectraMax 340 (Bucherer, Basel, Switzerland). IC50 values are determined by a computerized system (SoftPro, Bucherer, Basel, Switzerland) using the formula (OD test—OD start)/(OD control—OD start)×100. […]

1A9 cells = assay: In vitro cytotoxicity assay (MTT); format: cell-based; conditions: Homo sapiens, 1A9, 72 h, 1A9 cells, 72 hours
Procedure: 1A9 and 1A9PTX22 cells are plated in 96-well plates at 5×10^4 cells/well, plced in a tissue culture incubator and allowed to attach overnight. The next morning, the number of viable cells in the “time 0” plate (3 wells for each cell line) is determined using an MTT assay (Alley M C, et al., Cancer Res. 1988, 48:589-601).
At the same time drugs are added in serial, 10-fold dilutions, to the experimental plates. Corresponding vehicles are added to control plates. Experimental and control plates are then incubated in the tissue culture incubator for 72 hours. After the incubation the number of viable cells is determined in each plate using the MTT assay. IC50s (defined as a concentration of a given compound causing 50% inhibition of cell growth) are determined by comparing cell growth in the drug-treated plate (T−T0) to the cell growth in the corresponding control plate (C−T0). For each experiment results are calculated using average numbers from two sets of plates.
Discodermolide is isolated from the sponge Discodermia dissoluta using the method of Gunasekera SP (supra). Multiple batches of compound of similar purity (all>95% pure, as determined by mass spectrometry, and nuclear magnetic resonance analysis) are used throughout the various studies. For the in vitro cytotoxicity assays all compounds are dissolved in DMSO and are added to the plates with cells to obtain desired concentrations. […] Paclitaxel is purchased from Sigma/Aldrich, (St. Louis, Mo.). For the in vivo hollow fiber assay, solid discodermolide is dissolved in pure ethanol to create a stock solution which is diluted just before dosing with Cremophor EL and D5W to a final concentration of 16.7% Cremophor EL, 8.3% ethanol and 75% D5W. The compound is administered to mice as a single, 15 mg/kg iv injection. Positive control animals receive clinical formulations of paclitaxel (TAXOL) diluted 4-fold with D5W (12.5% Cremophor El, 12.5% ethanol and 75% D5W final concentrations) and administered iv, at 15 mg/kg, once daily for five consecutive days. Vehicle controls are administered according to the corresponding drug schedules.

[2] = In vivo hollow fiber assay, body weight of the animals; design: species or system mice; conditions: both experiments
Procedure: Outbred athymic (nu/nu) female mice (“Chrls:Athymic Nude-nu”, Charles River Laboratories, Wilmington, Mass.) are anesthetized with ip injections of Ketamine/Xylazine (150 mg/kg, and 12 mg/kg body weight, respectively). For the subcutaneous implantation an 11-gauge trocar containing one or two hollow fibers is inserted into an incision made with scissors at the nape of the neck of an animal, and fibers are released by retracting the trocar while depressing the plunger. This procedure is repeated until all three hollow fibers are implanted. One wound clip is used to close the skin incision After the surgery each animal receives a single, subcutaneous injection of 0.4 mg/kg butorphenol to relieve any potential pain. Animals recover from the anesthesia on a heating pad, before retuning to their cages.
One day after the implantation (3 hollow fibers/animal, each hollow fiber containing one cell line: LS 174T, 1A9, and 1A9PTX22) animals are randomly sorted into five groups of six mice/group. […]
Discodermolide is isolated from the sponge Discodermia dissoluta using the method of Gunasekera SP (supra). Multiple batches of compound of similar purity (all>95% pure, as determined by mass spectrometry, and nuclear magnetic resonance analysis) are used throughout the various studies. […]

Structure (SMILES) | potency compared with paclitaxel [1] | IC50 (1A9 cells; first experiment) | IC50 (1A9 cells; second experiment) | body weight lost ([2]; discodermolide single 15 mg/kg iv) | IC50 (1A9 cells; first experiment, read-out: IC50) | IC50 (1A9 cells; second experiment, read-out: IC50) | body weight lost ([2]; paclitaxel iv 15 mg/kg once daily for 5 days)
C=C/C=C\[C@H](C)[C@H](OC(N)=O)[C@@H](C)[C@H](O)[C@@H](C)C/C(C)=C\[C@H](C)[C@@H](O)[C@@H](C)/C=C\[C@@H](O)C[C@@H]1OC(=O)[C@H](C)[C@@H](O)[C@H]1C [discodermolide, (+)-Discodermolide] | more potent than paclitaxel | 6 ng/mL (≈ 10.1 nM) | 3 ng/mL (≈ 5.05 nM) | 10% |  |  | 
CC(=O)O[C@H]1C(=O)[C@@]2(C)[C@H]([C@H](OC(=O)c3ccccc3)[C@]3(O)C[C@H](OC(=O)[C@H](O)[C@@H](NC(=O)c4ccccc4)c4ccccc4)C(C)=C1C3(C)C)[C@]1(OC(C)=O)CO[C@@H]1C[C@@H]2O [paclitaxel, reference compound] |  |  |  |  | 0.8 ng/mL (≈ 0.937 nM) | 0.4 ng/mL (≈ 0.468 nM) | 5%
